Values of other authors, collected in PMC9063988 (JACS Au, 2022).

Tested on: SARS-CoV-2 spike pseudo-lentiviral vector into A549 cells overexpressing ACE2 and TMPRSS2

In the case of `O=c1c2ccccc2[se]n1-c1ccccc1` [ebselen], the “inhibition of entry of SARS-CoV-2 lentivectors” value is given as “only at high IC50 with high toxicity”.
